Experimental data published in article PMC2947513, “Identification of an Archaeal Presenilin-Like Intramembrane Protease” (PLoS ONE, 2010).

Target: T1, MCMJR1 (Methanoculleus marisnigri, UniProt A3CWV0)
T1 construct: gene Memar_1924; full-length; N-terminal His6-SUMO fusion cut off with ULP1; expressed in E. coli Rosetta (DE3) pLysS; detergent-purified; catalytic D162 and D220; eight predicted TMDs
T1 sequence (A3CWV0 1-301): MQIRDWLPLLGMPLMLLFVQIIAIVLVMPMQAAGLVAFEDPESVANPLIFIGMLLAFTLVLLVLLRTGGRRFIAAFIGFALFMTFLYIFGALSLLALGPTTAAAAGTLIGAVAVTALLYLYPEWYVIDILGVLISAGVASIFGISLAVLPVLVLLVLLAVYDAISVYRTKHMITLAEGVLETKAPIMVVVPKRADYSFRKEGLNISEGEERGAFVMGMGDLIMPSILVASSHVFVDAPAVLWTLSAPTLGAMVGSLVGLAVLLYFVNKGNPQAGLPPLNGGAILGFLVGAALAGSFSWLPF
Experiment: cleavage of Gurken-TMD (MBP chimera), anti-MBP western blot with densitometry
Format: biochemical
Settings: transition-state analog; 0.8 µM enzyme, 2 h pre-incubation at 37 °C, 0.8 µM Gurken-TMD, 8 h; 31C at 10-100 µM; IC50 not given

Structure (SMILES): COC(=O)C(NC(=O)C(CC(C)C)NC(=O)N(Cc1ccccc1)CC(O)C(Cc1ccccc1)NC(=O)OC(C)(C)C)C(C)C (stereo not shown) [31C]
- complete inhibition of activity: ~ 100 µM
